Results on eight compounds are retold here after patent EP0400805A1, “Cephalosporin compounds and their use” (Ishimaru, Toshiyasu, priority 1989, dated 1990).

Holding throughout (experiment): MIC by agar dilution method
Holding throughout (type): cell-based
Common to all, as to set-up: unit not given here
A general note: In agar dilution the substance is mixed into plates at graded concentrations.

Assay [1] concerns Salmonella typhi. On the procedure:
(§1) The following Table 1 show minimum inhibitory concentrations (MIC) against Gram-positive and Gram-negative bacteria of representative compounds of the invention. MIC was measured by agar dilution method.

The test system of assay [2] is Staph. epidermidis. The procedure:
as §1

In assay [3] the test system is Staph. aureus Smith. On the procedure:
as §1

The test system of assay [4] is Serratia marcescens. The procedure:
as §1

Assay [5] has as its system Pseudomonas aerugenosa. On the procedure: as §1
The test system of assay [6] is Pseudomonas aerugenosa GN. On the procedure:
as §1

In assay [7] the test system is Enterobacter cloacae. The procedure:
as §1

Assay [8] relates to Escherichia coli NIHJ. The procedure: as §1
The subject of assay [9] is Bacillus subtilis. On the procedure: as §1
The subject of assay [10] is Proteus mirabilis. The procedure: as §1
In assay [11] the test system is Klebsiella pneumoniae. The procedure: as §1

Turning to `Nc1nc(/C(=N/OCc2cc(O)c(O)c(Cl)c2)C(=O)NC2C(=O)N3C(C(=O)O)=C(CSc4cnns4)CSC23)cs1` (stereo not shown) [Example 7], the “Minimum Inhibitor Concentration (MIC)” value was < 0.05 in [1]; 0.78 in assay [2]; 0.01 in [3]; < 0.05 in [4]; 0.78 in assay [5]; 1.56 in assay [6]. Besides, the “Minimum Inhibitor Concentration (MIC)” value in assay [7] is 6.25; in assay [8], < 0.05; in assay [9], 1.56; in assay [10], < 0.05; in assay [11], < 0.05.

As to `Nc1nc(/C(=N/OCc2cc(O)c(O)c(F)c2)C(=O)NC2C(=O)N3C(C(=O)O)=C(CSc4cnns4)CSC23)cs1` (stereo not shown) [Example 9, Sodium 7-[2-(2-aminothiazol-4-yl)-2(Z)-(5-fluoro-3,4-dihydroxybenzyloxyimino)acetamido]-3-(l,2,3-thiadiazol-5-yl)thiomethyl-3-cephem-4-carboxylate], the “Minimum Inhibitor Concentration (MIC)” value is < 0.05 in assay [1]; 0.78 in assay [2]; 0.10 in assay [3]; < 0.05 in [4]; 0.78 in assay [5]; 1.56 in assay [6]. The “Minimum Inhibitor Concentration (MIC)” value in assay [7] is recorded as 6.25; in assay [8], < 0.05; in assay [9], 1.56; in assay [10], < 0.05; in assay [11], < 0.05.

As to `Nc1nc(/C(=N/OCc2ccc(O)c(O)c2Cl)C(=O)NC2C(=O)N3C(C(=O)[O-])=C(CSc4cnns4)CS[C@H]23)cs1.[Na+]` (stereo partly shown) [Example 2, Sodium 7-[2-(2-aminothiazol-4-yl)-2(Z)-(2-chloro-3,4-dihydroxybenzyloxyimino)acetamido]-3-(1,2,3-thiadiazol-5-yl)thiomethyl-3-cephem-4-carboxylate], the “Minimum Inhibitor Concentration (MIC)” value in [1] came to 0.20; in assay [2], 0.20; in assay [3], 0.20; in assay [4], 0.78; in [5] it was 0.78; in assay [6], 6.25. The “Minimum Inhibitor Concentration (MIC)” value in assay [7] is 0.78; in assay [8], 0.78; in [9], 0.20; in assay [10], 0.05; in assay [11], 0.20.

Take “Sodium 7-[2-(2-aminothiazol-4-yl)-2(Z)-(3,4-dihydroxybenzyloxyimino)acetamido]-3-(5-methyl-2-tetrazol-2-yl)thiomethyl-3-cephem-4-carboxylate [Example 6]”: the “Minimum Inhibitor Concentration (MIC)” value in [1] came out at 0.20; in assay [2], 1.56; in [3], 0.10; in assay [4], 0.20; in assay [5], 0.78; in [6], 1.56. Besides, the “Minimum Inhibitor Concentration (MIC)” value turned out to be 1.56 in [7]; 0.05 in [8]; 0.39 in assay [9]; 0.10 in assay [10]; 0.10 in assay [11].

As for `Nc1nc(/C(=N/OCc2cc(Cl)c(O)c(O)c2Cl)C(=O)NC2C(=O)N3C(C(=O)[O-])=C(CSc4cnns4)CS[C@H]23)cs1.[Na+]` (stereo partly shown) [Example 1, Sodium 7-[2-(2-aminothiazol-4-yl)-2(Z)-(2,5-dichloro-3,4-dihydroxybenzyloxyimino)acetamido]-3-(1,2,3-thiadiazol-5-yl)thiomethyl-3-cephem-4-carboxylate], the “Minimum Inhibitor Concentration (MIC)” value in assay [1] is 0.10; in [2], 0.20; in assay [3], 0.10; in [4], 0.10; in assay [5], 0.39; in assay [6], 0.39. In addition, the “Minimum Inhibitor Concentration (MIC)” value in [7] was 0.20; in [8] it was 0.05; in assay [9], 0.78; in assay [10], 0.05; in assay [11] it was 0.05.

In the case of `C[n+]1ccc(SCC2=C(C(=O)[O-])N3C(=O)C(NC(=O)/C(=N\OCc4cc(Cl)c(O)c(O)c4Cl)c4csc(N)n4)C3SC2)cc1` (stereo not shown) [Example 3, 7-[2-(2-aminothiazol-4-yl)-2(Z)-(2,5-dichloro-3,4-di hydroxybenzyloxyimino)acetamido]-3-(N-methylpyridin-4-yl)thiomethyl-3-cephem-4-carboxylic acid], the “Minimum Inhibitor Concentration (MIC)” value in assay [1] is 0.39; in [2], 0.39; in assay [3], 0.39; in assay [4], 0.05; in [5], 0.39; in assay [6] it was 0.39. The “Minimum Inhibitor Concentration (MIC)” value in [7] is given as 0.20; in assay [8] it was 0.05; in assay [9], 0.78; in assay [10], 0.025; in assay [11], 0.05.

For `Nc1nc(/C(=N/OCc2ccc(O)c(O)c2)C(=O)NC2C(=O)N3C(C(=O)[O-])=C(CSc4cnns4)CS[C@H]23)cs1.[Na+]` (stereo partly shown) [Example 5, Sodium 7-[2-(2-aminothiazol-4-yl)-2(Z)-(3,4-dihydroxybenzyloxyimino)acetamido]-3-(1,2,3-thiadiazol-5-yl)thiomethyl-3-cephem-4-carboxylate], the “Minimum Inhibitor Concentration (MIC)” value is 0.10 in assay [1]; 0.78 in [2]; 0.10 in assay [3]; 0.10 in assay [4]; 0.39 in assay [5]; 0.78 in assay [6]. Moreover, the “Minimum Inhibitor Concentration (MIC)” value is on record as 0.78 in assay [7]; 0.05 in assay [8]; 0.39 in assay [9]; 0.10 in assay [10]; 0.05 in [11].

Turning to `Nc1nc(/C(=N/OCc2cc(F)c(O)c(O)c2F)C(=O)NC2C(=O)N3C(C(=O)[O-])=C(CSc4cnns4)CS[C@H]23)cs1.[Na+]` (stereo partly shown) [Example 8, Sodium 7-[2-(2-aminothiazol-4-yl)-2(Z)-(2,5-difluoro-3,4-dihydroxybenzyloxyimino)acetamido]-3-(1,2,3-thiadiazol-5-yl)thiomethyl-3-cephem-4-carboxylate], the “Minimum Inhibitor Concentration (MIC)” value in assay [1] is < 0.05; in assay [2], 0.20; in assay [3] it was 0.10; in assay [4], < 0.05; in assay [5], 0.39; in assay [6], 0.78. Also, the “Minimum Inhibitor Concentration (MIC)” value in assay [7] was 3.13; in assay [8], < 0.05; in [9], 1.56; in assay [10] it was < 0.05; in assay [11], < 0.05.
